This note sets out measurements from patent US20230416240A1, “KAT6 TARGETING COMPOUNDS” (Prelude Therapeutics Incorporated, priority 2022, published 2023).

SMILES strings stand for the structures.

In the assay the target is T1, HiBit tagged KAT6A (Homo sapiens, UniProt Q92794).
T1 construct: host or cells: HeLa
T1 sequence (Q92794 whole entry): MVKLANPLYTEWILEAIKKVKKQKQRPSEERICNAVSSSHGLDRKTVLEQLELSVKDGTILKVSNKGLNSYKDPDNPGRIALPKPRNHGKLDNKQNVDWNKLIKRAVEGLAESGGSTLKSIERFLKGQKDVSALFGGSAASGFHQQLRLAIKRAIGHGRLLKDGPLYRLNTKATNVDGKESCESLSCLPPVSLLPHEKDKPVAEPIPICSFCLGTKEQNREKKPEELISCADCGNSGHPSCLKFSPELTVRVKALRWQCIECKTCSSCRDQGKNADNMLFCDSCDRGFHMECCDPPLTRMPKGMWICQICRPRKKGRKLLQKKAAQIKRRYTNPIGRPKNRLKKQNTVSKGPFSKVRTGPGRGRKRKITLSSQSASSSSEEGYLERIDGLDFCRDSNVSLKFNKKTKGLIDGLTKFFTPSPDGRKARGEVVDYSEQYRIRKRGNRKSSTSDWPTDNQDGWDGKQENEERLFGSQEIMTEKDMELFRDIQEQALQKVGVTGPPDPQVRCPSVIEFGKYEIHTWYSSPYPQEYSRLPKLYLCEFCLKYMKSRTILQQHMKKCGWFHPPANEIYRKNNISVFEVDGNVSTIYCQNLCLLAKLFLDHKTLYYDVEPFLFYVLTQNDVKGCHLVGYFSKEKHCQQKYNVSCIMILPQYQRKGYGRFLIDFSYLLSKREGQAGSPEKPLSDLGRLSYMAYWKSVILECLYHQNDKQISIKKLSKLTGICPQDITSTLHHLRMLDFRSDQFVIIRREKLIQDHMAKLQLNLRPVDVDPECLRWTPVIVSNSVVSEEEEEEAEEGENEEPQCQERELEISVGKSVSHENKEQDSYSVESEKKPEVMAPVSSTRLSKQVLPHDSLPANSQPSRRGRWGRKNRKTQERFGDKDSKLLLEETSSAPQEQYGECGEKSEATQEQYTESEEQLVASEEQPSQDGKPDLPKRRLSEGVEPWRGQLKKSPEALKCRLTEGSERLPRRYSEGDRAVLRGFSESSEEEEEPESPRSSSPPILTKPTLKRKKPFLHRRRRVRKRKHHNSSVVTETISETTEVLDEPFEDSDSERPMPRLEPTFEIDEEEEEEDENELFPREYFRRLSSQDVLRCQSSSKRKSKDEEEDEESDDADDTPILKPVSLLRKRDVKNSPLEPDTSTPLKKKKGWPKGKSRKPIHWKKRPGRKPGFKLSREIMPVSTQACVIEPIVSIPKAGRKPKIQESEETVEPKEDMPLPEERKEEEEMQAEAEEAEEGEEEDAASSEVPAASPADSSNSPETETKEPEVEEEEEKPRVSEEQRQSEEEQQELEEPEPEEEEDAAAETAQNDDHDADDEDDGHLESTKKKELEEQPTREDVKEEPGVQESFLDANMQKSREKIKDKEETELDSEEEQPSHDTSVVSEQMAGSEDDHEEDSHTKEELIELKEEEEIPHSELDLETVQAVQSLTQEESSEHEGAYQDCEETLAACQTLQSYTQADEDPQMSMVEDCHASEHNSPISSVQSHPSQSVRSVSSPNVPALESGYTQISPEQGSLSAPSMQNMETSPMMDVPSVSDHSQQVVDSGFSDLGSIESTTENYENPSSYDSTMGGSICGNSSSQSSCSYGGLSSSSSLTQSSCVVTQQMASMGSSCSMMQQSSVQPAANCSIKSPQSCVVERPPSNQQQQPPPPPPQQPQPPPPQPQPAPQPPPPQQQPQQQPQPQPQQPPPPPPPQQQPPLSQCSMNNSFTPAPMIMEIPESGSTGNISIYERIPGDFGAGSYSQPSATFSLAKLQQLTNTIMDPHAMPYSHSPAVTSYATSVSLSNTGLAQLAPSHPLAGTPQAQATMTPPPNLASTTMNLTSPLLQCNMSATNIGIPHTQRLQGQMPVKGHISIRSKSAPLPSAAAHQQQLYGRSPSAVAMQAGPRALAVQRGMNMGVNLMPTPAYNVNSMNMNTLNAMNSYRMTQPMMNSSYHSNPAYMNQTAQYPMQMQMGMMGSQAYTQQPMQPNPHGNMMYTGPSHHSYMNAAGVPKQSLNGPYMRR
The assay can be described thus: HiBit KAT6A Degradation Assessment. Type of assay: cell-based. The note with it: HeLa cells with HiBit tagged KAT6A, 18 h of treatment, 9-point serial dilution. How it is done: The degradation activity of compounds was evaluated by measuring levels of KAT6A protein using the HiBiT system. These studies were conducted in HeLa cells with a HiBit tagged KAT6A. Cells were maintained in a 37° C. incubator at 5% CO2 in EMEM (ATCC, 30-2003) supplemented with 10% v/v FBS (Gibco, 26140-079) and 1% penicillin streptomycin. Cells were seeded in 384-well plates at a density of 2,000 cells/well. Compounds dissolved in DMSO were added in 9-point serial dilution. After 18 h of treatment, KAT6A levels were measured using the Nano-Glo® HiBiT Lytic Detection System (Promega catalog number N3030) per manufacturer's instructions. Luminescence signal was measured with a multimode plate reader (Envision 2105, Perkin Elmer). Luminescence values were normalized to background and DMSO controls to quantify KAT6A for each condition. Results were analyzed, and DC50 and Dmax values obtained using a four-parameter logistic curve fit.
For orientation: With HiBiT, luminescence reflects the tagged protein that the partner subunit can reach.
`COc1cc(Cn2cccn2)cc2onc(NS(=O)(=O)c3cccc(N4CC5(CCN(CC6(C)CCN(c7ccc8c(c7)C(=O)N(C7CCC(=O)NC7=O)C8=O)C6)CC5)C4)c3)c12` (stereo not drawn) [Example 12, N-(6-((1H-Pyrazol-1-yl)methyl)-4-methoxybenzo[d]isoxazol-3-yl)-3-(7-((1-(2-(2,6-dioxopiperidin-3-yl)-1,3-dioxoisoindolin-5-yl)-3-methylpyrrolidin-3-yl)methyl)-2,7-diazaspiro[3.5]nonan-2-yl)benzenesulfonamide] came in with a DC50 of under 10 nM and a Dmax of 50 to 75%.

`COc1cc(Cn2cccn2)cc2onc(NS(=O)(=O)c3cccc(N4CC5(CCN(CC6(F)CCN(c7ccc8c(c7)C(=O)N(C7CCC(=O)NC7=O)C8=O)C6)CC5)C4)c3)c12` (stereo not drawn) [Example 13, N-(6-((1H-Pyrazol-1-yl)methyl)-4-methoxybenzo[d]isoxazol-3-yl)-3-(7-((1-(2-(2,6-dioxopiperidin-3-yl)-1,3-dioxoisoindolin-5-yl)-3-fluoropyrrolidin-3-yl)methyl)-2,7-diazaspiro[3.5]nonan-2-yl)benzenesulfonamide]: the DC50 is 10 to 100 nM and the Dmax was in the range of 50 to 75%.

In turn, `COc1cc(Cn2cccn2)cc2onc(NS(=O)(=O)c3cccc(N4CCC5(CC4)CN(C[C@@H]4CCN(c6ccc7c(c6)C(=O)N(C6CCC(=O)NC6=O)C7=O)C4)C5)c3)c12` (stereo partly drawn) [Example 14, N-(6-((1H-Pyrazol-1-yl)methyl)-4-methoxybenzo[d]isoxazol-3-yl)-3-(2-(((3S)-1-(2-(2,6-dioxopiperidin-3-yl)-1,3-dioxoisoindolin-5-yl)pyrrolidin-3-yl)methyl)-2,7-diazaspiro[3.5]nonan-7-yl)benzenesulfonamide] came in with a DC50 of under 10 nM and a Dmax of 50 to 75%.

`COc1cc(Cn2cccn2)cc2onc(NS(=O)(=O)c3cccc(N4CCC5(CCN(C[C@@H]6CCN(c7ccc8c(c7)C(=O)N(C7CCC(=O)NC7=O)C8=O)C6)CC5)C4)c3)c12` (stereo partly drawn) [Example 15, N-(6-((1H-Pyrazol-1-yl)methyl)-4-methoxybenzo[d]isoxazol-3-yl)-3-(8-(((3S)-1-(2-(2,6-dioxopiperidin-3-yl)-1,3-dioxoisoindolin-5-yl)pyrrolidin-3-yl)methyl)-2,8-diazaspiro[4.5]decan-2-yl)benzenesulfonamide] showed a DC50 of under 10 nM and a Dmax of 50 to 75%.

In turn, `COc1cc(Cn2cccn2)cc2onc(NS(=O)(=O)c3cccc(N4CC5(CCN(C[C@@H]6CCN(c7ccc8c(c7)C(=O)N(C7CCC(=O)NC7=O)C8=O)C6)CC5)C4)c3)c12` (stereo partly drawn) [Example 16, N-(6-((1H-Pyrazol-1-yl)methyl)-4-methoxybenzo[d]isoxazol-3-yl)-3-(7-(((3S)-1-(2-(2,6-dioxopiperidin-3-yl)-1,3-dioxoisoindolin-5-yl)pyrrolidin-3-yl)methyl)-2,7-diazaspiro[3.5]nonan-2-yl)benzenesulfonamide] gave a DC50 of under 10 nM and a Dmax of over 75%.

`COc1cc(Cn2cccn2)cc2onc(NS(=O)(=O)c3cccc(N4CCN(CCOC5CCN(c6ccc7c(c6)C(=O)N(C6CCC(=O)NC6=O)C7=O)CC5)CC4)c3)c12` (stereo not drawn) [Example 17, N-(6-((1H-Pyrazol-1-yl)methyl)-4-methoxybenzo[d]isoxazol-3-yl)-3-(4-(2-((1-(2-(2,6-dioxopiperidin-3-yl)-1,3-dioxoisoindolin-5-yl)piperidin-4-yl)oxy)ethyl)-piperazin-1-yl)benzenesulfonamide] gave a Dmax of 25 to 50%.

`COc1cc(Cn2cccn2)cc2onc(NS(=O)(=O)c3cccc(N4CCN(CC5CN(c6ccc7c(c6)C(=O)N(C6CCC(=O)NC6=O)C7=O)CCO5)CC4)c3)c12` (stereo not drawn) [Example 18, N-(6-((1H-Pyrazol-1-yl)methyl)-4-methoxybenzo[d]isoxazol-3-yl)-3-(4-((4-(2-(2,6-dioxopiperidin-3-yl)-1,3-dioxoisoindolin-5-yl)morpholin-2-yl)methyl)piperazin-1-yl)benzenesulfonamide] showed a Dmax of 25 to 50%.

Molecule `COc1cc(Cn2cccn2)cc2onc(NS(=O)(=O)c3cccc(N4CCN(CC5CC6(CCN(c7ccc8c(c7)C(=O)N(C7CCC(=O)NC7=O)C8=O)CC6)C5)CC4)c3)c12` (stereo not drawn) [Example 19, N-(6-((1H-Pyrazol-1-yl)methyl)-4-methoxybenzo[d]isoxazol-3-yl)-3-(4-((7-(2-(2,6-dioxopiperidin-3-yl)-1,3-dioxoisoindolin-5-yl)-7-azaspiro[3.5]nonan-2-yl)methyl)piperazin-1-yl)benzenesulfonamide] came in with a DC50 of 10 to 100 nM and a Dmax of 50 to 75%.

`COc1cc(Cn2cccn2)cc2onc(NS(=O)(=O)c3cccc(N4CCC5(CCN(CC6CCN(c7ccc8c(c7)C(=O)N(C7CCC(=O)NC7=O)C8=O)C6)CC5)CC4)c3)c12` (stereo not drawn) [Example 20, N-(6-((1H-Pyrazol-1-yl)methyl)-4-methoxybenzo[d]isoxazol-3-yl)-3-(9-((1-(2-(2,6-dioxopiperidin-3-yl)-1,3-dioxoisoindolin-5-yl)pyrrolidin-3-yl)methyl)-3,9-diazaspiro[5.5]undecan-3-yl)benzenesulfonamide]: the DC50 was under 10 nM and the Dmax is over 75%.

As for `COc1cc(Cn2cccn2)cc2onc(NS(=O)(=O)c3cccc(N4CCN(CC5CCN(c6ccc7c(c6)C(=O)N(C6CCC(=O)NC6=O)C7=O)C5)C(C)(C)C4)c3)c12` (stereo not drawn) [Example 21, N-(6-((1H-Pyrazol-1-yl)methyl)-4-methoxybenzo[d]isoxazol-3-yl)-3-(4-((1-(2-(2,6-dioxopiperidin-3-yl)-1,3-dioxoisoindolin-5-yl)pyrrolidin-3-yl)methyl)-3,3-dimethylpiperazin-1-yl)benzenesulfonamide], the DC50 lay in the range of 100 to 1000 nM and the Dmax lay in the range of 50 to 75%.

For the molecule `COc1cc(Cn2cccn2)cc2onc(NS(=O)(=O)c3cccc(N4CC5(CCN(C6CC7(CCN(c8ccc9c(c8)C(=O)N(C8CCC(=O)NC8=O)C9=O)C7)C6)CC5)C4)c3)c12` (stereo not drawn) [Example 22, N-(6-((1H-Pyrazol-1-yl)methyl)-4-methoxybenzo[d]isoxazol-3-yl)-3-(7-(6-(2-(2,6-dioxopiperidin-3-yl)-1,3-dioxoisoindolin-5-yl)-6-azaspiro[3.4]octan-2-yl)-2,7-diazaspiro[3.5]nonan-2-yl)benzenesulfonamide], the DC50 was under 10 nM and the Dmax was 50 to 75%.

`COc1cc(Cn2cccn2)cc2onc(NS(=O)(=O)c3cccc(N4CCC(CN5CCC(Oc6ccc7c(c6)C(=O)N(C6CCC(=O)NC6=O)C7=O)CC5)C4)c3)c12` (stereo not drawn) [Example 23, N-(6-((1H-Pyrazol-1-yl)methyl)-4-methoxybenzo[d]isoxazol-3-yl)-3-(3-((4-((2-(2,6-dioxopiperidin-3-yl)-1,3-dioxoisoindolin-5-yl)oxy)piperidin-1-yl)methyl)pyrrolidin-1-yl)benzenesulfonamide]: the Dmax is 25 to 50%.

`COc1cc(Cn2cccn2)cc2onc(NS(=O)(=O)c3cccc(N4CCN(C(=O)C5CCN(c6ccc7c(c6)C(=O)N(C6CCC(=O)NC6=O)C7=O)C5)CC4)c3)c12` (stereo not drawn) [Example 24, N-(6-((1H-pyrazol-1-yl)methyl)-4-methoxybenzo[d]isoxazol-3-yl)-3-(4-(1-(2-(2,6-dioxopiperidin-3-yl)-1,3-dioxoisoindolin-5-yl)pyrrolidine-3-carbonyl)piperazin-1-yl)benzenesulfonamide]: the Dmax is at most 25%.

Take `COc1ccc(N2CC3(CCN(C[C@@H]4CCN(c5ccc6c(c5)C(=O)N(C5CCC(=O)NC5=O)C6=O)C4)CC3)C2)c(OC)c1S(=O)(=O)Nc1noc2cc(Cn3cccn3)cc(OC)c12` (stereo partly drawn) [Example 25, N-(6-((1H-Pyrazol-1-yl)methyl)-4-methoxybenzo[d]isoxazol-3-yl)-3-(7-(((3S)-1-(2-(2,6-dioxopiperidin-3-yl)-1,3-dioxoisoindolin-5-yl)pyrrolidin-3-yl)methyl)-2,7-diazaspiro[3.5]nonan-2-yl)-2,6-dimethoxybenzenesulfonamide]: the DC50 was under 10 nM and the Dmax was over 75%.

For `COc1c(N2CC3(CCN(C[C@@H]4CCN(c5ccc6c(c5)CN(C5CCC(=O)NC5=O)C6=O)C4)CC3)C2)cccc1S(=O)(=O)Nc1noc2cc(Cn3cccn3)cc(OC)c12` (stereo partly drawn) [Example 26, N-(6-((1H-Pyrazol-1-yl)methyl)-4-methoxybenzo[d]isoxazol-3-yl)-3-(7-(((3S)-1-(2-(2,6-dioxopiperidin-3-yl)-1-oxoisoindolin-5-yl)pyrrolidin-3-yl)methyl)-2,7-diazaspirononan-2-yl)-2-methoxybenzenesulfonamide], the DC50 was under 10 nM and the Dmax was over 75%.

`COc1c(N2CC3(CCN(C[C@H]4CCN(c5ccc6c(c5)CN(C5CCC(=O)NC5=O)C6=O)C4)CC3)C2)cccc1S(=O)(=O)Nc1noc2cc(Cn3cccn3)cc(OC)c12` (stereo partly drawn) [Example 27, N-(6-((1H-Pyrazol-1-yl)methyl)-4-methoxybenzo[d]isoxazol-3-yl)-3-(7-(((3R)-1-(2-(2,6-dioxopiperidin-3-yl)-1-oxoisoindolin-5-yl)pyrrolidin-3-yl)methyl)-2,7-diazaspiro[3.5]nonan-2-yl)-2-methoxybenzenesulfonamide]: the DC50 was under 10 nM and the Dmax was over 75%.

The molecule `COc1cc(Cn2cccn2)cc2onc(NS(=O)(=O)c3cccc(N4CC5(CCN(C[C@@H]6CCN(c7ccc8c(c7)CN([C@H]7CCC(=O)NC7=O)C8=O)C6)CC5)C4)c3)c12` [Example 28, N-(6-((1H-Pyrazol-1-yl)methyl)-4-methoxybenzo[d]isoxazol-3-yl)-3-(7-(((S)-1-(2-((S)-2,6-dioxopiperidin-3-yl)-1-oxoisoindolin-5-yl)pyrrolidin-3-yl)methyl)-2,7-diazaspiro[3.5]nonan-2-yl)benzenesulfonamide] returned a 50% degradation concentration (DC50) of under 10 nM and a Dmax of over 75%.

As a reminder, the DC50 is the concentration giving 50% degradation. High values mean a less potent degrader, low ones a more potent degrader. As usually defined, the Dmax is the largest share of the target that was removed. Read a high Dmax as a fuller loss of target.
